Data on 87 compounds can be found in a melting point compilation (Tetko et al.; mined from patent text by program, amines drawn as free bases though some values may be those of a salt).

As a reminder, the melting point is the temperature, or range, at which the solid turns liquid. Turning to `CC(C)(O)c1ccc(S(N)(=O)=O)o1`, the melting point was in the range of 116 to 118 °C.

Turning to `CCCc1nc(C#N)c(N)n1CC(C)C`, the melting point lay within 135 to 136 °C.

As for `Nc1ccccc1C(=O)/C=C/c1nccn1C(c1ccccc1)(c1ccccc1)c1ccccc1`, the melting point lay in the range of 142 to 144 °C.

Regarding `O=C(CCC(=O)N1CCC[C@H]1C(=O)O)c1ccccc1`, the melting point fell in the range of 95 to 97 °C.

As to `O=C(Nc1ccc2[nH]ncc2c1)O[C@@H](c1cc(F)cc(Cl)c1)[C@H]1CCCCN1`, the melting point came out at 220 °C.

`CC(O)(c1nc2cc([N+](=O)[O-])ccc2s1)C(F)(F)F` (configuration not stated) returned a melting point of 66 to 69 °C.

Regarding `O=c1cc(C(F)(F)F)[nH]n1-c1cccc([N+](=O)[O-])c1`, the melting point stood at 166 °C.

Compound `COc1ccc(C2=NN(Cc3ccncc3)C(=O)[C@H]3CC=CC[C@@H]23)cc1OC` (relative stereo) registered a melting point of 121 to 124 °C.

`O=Cc1ccc(OC(=O)c2ccccc2)c([N+](=O)[O-])c1` registered a melting point of 110 to 112 °C.

`CCOc1nc(NC(C)=O)nc2ccc(Cl)nc12` showed a melting point of 233 °C.

For the compound `Cc1cccc(NC(=O)NCC(=O)N(CC(=O)OC(C)(C)C)c2ccccc2C)c1`, the melting point was 133 °C.

Compound `NNc1cccc(-c2ccccn2)n1` came in with a melting point of 69 to 70 °C.

In the case of `O=C(Nc1ccc2ccc(-c3ccc(Cl)cc3)nc2n1)c1cccc(Cl)c1`, the melting point was 222 to 224 °C.

In the case of `CC(C)C(NC(=O)c1ccc(C(=O)NCC(=O)O)cc1)C(=O)N1CCCC1C(=O)NC(C(=O)C(F)(F)F)C(C)C` (mixture of isomers), the melting point is 99 to 103 °C.

Compound `C#Cc1ccc2cc(OC)ccc2c1` showed a melting point of 111 to 112 °C.

Take `N#Cc1cc(C(F)(F)F)nn1-c1ccc(NC(=O)c2ccncc2Cl)cc1`: the melting point fell in the range of 221 to 222 °C.

`Cc1nn(S(=O)Oc2ccccc2)c2ccccc12` (configuration not stated) had a melting point of 141 to 143 °C.

The compound `CCC(=O)C1=C(O)CC(c2ccc(Oc3ccc(S(C)(=O)=O)cc3)cc2)CC1=O` (configuration not stated) registered a melting point of 157 to 158 °C.

Turning to `CCOP(=O)(OCC)C1CCc2c(-n3cccc3)c(C(F)(F)F)cc3[nH]c(=O)c(=O)n1c23` (configuration not stated), the melting point was determined as 268 °C.

`CN(C(=O)OC(C)(C)C)c1cc(Oc2ccccc2N2CCCCC2)ccc1N` displayed a melting point of 108 to 110 °C.

Turning to `CNC(=O)c1ccc(C)c(-n2c(C)cc(OCc3ccccc3CNC(=O)Nc3cc(C(C)(C)C)nn3-c3cccc(OCCO)c3)c(Cl)c2=O)c1`, the melting point was 168 to 170 °C.

For `CCOC(=O)c1[nH]ccc1N`, the melting point is 197 to 200 °C.

`COCCN(C)Cc1ncc(C(=O)Nc2nc3c(OC)ccc(N4CCOCC4)c3s2)n1C` had a melting point of 176 to 178 °C.

Take `CCN(CC)Cc1cc(NC(=O)Nc2ccc(Oc3cc(NC)ncn3)cc2)cc(C(F)(F)F)c1`: the melting point lay in the range of 68 to 70 °C.

Turning to `CCCCCCS(=O)(=O)c1ccc(Oc2ccc(Br)cc2)nc1`, the melting point was 94 °C.

Turning to `Cc1cc2c(-c3cccc(Cl)c3)nc(Cl)nc2s1`, the melting point was 118 to 120 °C.

As for `O=C(NCCCCCCCCCCCCNC(=O)c1ccc(OC(F)(F)F)cc1)c1ccc(OC(F)(F)F)cc1`, the melting point is 158 to 159 °C.

`Nc1c(-c2ccc(-c3ccc(F)cc3F)cc2)nc2ccc(Cl)cc2c1C(=O)O` gave a melting point of 253 to 254 °C.

In the case of `CC(C)(C)NC(=O)c1ccccc1NS(=O)(=O)C(F)(F)F`, the melting point is 108 to 110 °C.

As for `CCCCCNS(=O)(=O)NC(=O)/C=C/c1ccc(OCCOC)cc1Oc1ncc(C(F)(F)F)cc1Cl`, the melting point is 120 to 122 °C.

`CC1CCc2c(c(-c3ccccc3)nc(=O)n2C(C)C)C1` (configuration not stated) returned a melting point of 175 to 177 °C.

In turn, `CCc1[nH]n(C2CCCC2)c2nc(-c3cccc(OC4CCCCN(C)C4)c3)nc(=O)c1-2` (configuration not stated) returned a melting point of 195 to 196 °C.

As for `COc1cccc(CNCc2ccc3nc(N)c4ncn(CC(C)C)c4c3c2)c1`, the melting point was in the range of 125 to 126 °C.

Compound `CCCOc1cc(-c2nc(-c3ccc(C(=O)OC)o3)cs2)ccc1OC` yielded a melting point of 141 to 142 °C.

The compound `CCOC(=O)[C@@H]1OC(c2ccc(O)c(OCC)c2)O[C@H]1C(=O)OCC` returned a melting point of 78 to 80 °C.

With `N#CC(=Cc1ccc[nH]1)C(=O)O`, the melting point amounted to 213 °C.

Compound `OCCOc1ccc(Nc2cc(Nc3ccccc3F)ncn2)cc1` showed a melting point of 163 to 166 °C.

`CCCCC(=O)C(C)(C)N1COC(C)=C(c2ccccc2)C1=O` displayed a melting point of 157 to 158 °C.

On to `Oc1ccc(-c2cc(F)c3cc(O)ccc3c2)cc1`, for which the melting point was in the range of 236 to 238 °C.

`N#CC(C#N)(CCSC(F)(F)C(F)Cl)CC(F)(F)C(F)(F)C(F)(F)C(F)F` (configuration not stated) yielded a melting point of 78 to 80 °C.

Turning to `COc1ccc(C2(C#Cc3cc(N4CN=C(C)O4)cs3)CCC(=O)CC2)cc1OC1CCCC1`, the melting point is 90 to 91 °C.

As to `C1=Cc2cccnc2N(C2CC2)c2ncccc21`, the melting point was 184 to 185 °C.

`Oc1cnc2cc(F)ccc2n1` gave a melting point of 304 to 305 °C.

`CS(=O)CCNC(=O)c1cccc(-c2ccc3c(c2)C(Oc2ccc(Cl)cc2Cl)CC3)c1` (configuration not stated): the melting point fell in the range of 149 to 150 °C.

Turning to `CC(C)C(NC(=O)c1ccc(C(=O)NCc2ccc(Cl)cc2)cc1)C(=O)N1CCCC1C(=O)NC(C(=O)C(F)(F)F)C(C)C` (mixture of isomers), the melting point lay in the range of 87 to 89 °C.

Compound `CCOC(=O)COC1CCN(C(=O)[C@H](C)OCc2ccc(C(N)=NO)cc2)CC1` came in with a melting point of 137 to 138 °C.

With `CCCCS(=O)(=O)NC1Cc2ccc(C3=NNC(=O)CC3(C)C)cc2C1` (configuration not stated), the melting point was in the range of 159 to 161 °C.

Consider `O=C(O)c1cn(C2CC2)c2nc3cc(N4CCNC(c5ccco5)C4)c(F)cc3cc2c1=O` (racemic), for which the melting point lay within 240 to 241 °C.

For `Fc1ccc2[nH]cc(Cc3ccncc3)c2c1`, the melting point was in the range of 141 to 142 °C.

Compound `O=C1Cc2ccccc2N1CC(F)(F)F` returned a melting point of 155 to 162 °C.

As for `O=C(O)Cn1cc(Cc2nc3c(F)c(F)cc(F)c3s2)c2cc(-c3ccccc3)ccc21`, the melting point lay within 156 to 159 °C.

For `O=C(Nc1ccccc1N1CCCCC1)c1ccncc1`, the melting point lay within 111 to 113 °C.

Regarding `COc1ccc(Nc2nc(-c3ccc(OC)c(OC)c3)cs2)nc1`, the melting point was in the range of 222 to 225 °C.

`CCCCCCCCCCCCCCOc1ccc(CC(=O)Nc2cccc(-c3nccs3)c2)cc1`: the melting point lay within 128 to 131 °C.

With `Cc1nn(-c2cc(Oc3ccc(N)cc3)c(Cl)cc2F)c(=O)n1C(F)F`, the melting point is 133 to 135 °C.

With `Oc1nc(O)c2occc2n1`, the melting point was found to be 233 °C.

`CC(C)(C)[Si](C)(C)Oc1ccc(NC(=O)CN2CCC(O)(Cc3ccccc3)CC2)cc1` displayed a melting point of 105 to 108 °C.

For the compound `COc1ccc(CNC(=NC#N)Nc2ccc(C3=NNC(=O)CC3C)cc2)cc1` (configuration not stated), the melting point lay in the range of 231 to 233 °C.

Compound `COc1cc(OC)c2c(c1)c(-c1cc3cccnc3[nH]1)cn2C` had a melting point of 220 °C.

Take `CC(C)c1n[nH]c2c(NCc3ccc(O)cc3)ncnc12`: the melting point was 234 to 236 °C.

Take `CC(=O)c1ccc2occ(C#N)c(=O)c2c1`: the melting point was in the range of 170 to 172 °C.

The compound `CS(=O)(=O)C(=C1CN(C(c2ccccc2)c2ccccc2)C1)c1cccc(N2CCCC2)c1` had a melting point of 153 °C.

The compound `Cc1ccc(C2=C(C(=O)O)N(CC(C)C)Cc3ccc(OCc4ccccc4)cc32)cc1` registered a melting point of 153 to 154 °C.

For `Fc1cc2c(Nc3ccc(F)c(C(F)(F)F)c3)ncnc2cn1`, the melting point lay within 247 to 249 °C.

With `CCNC(=S)n1nc(Oc2c(F)cc(C(F)(F)F)cc2Cl)cc1C`, the melting point lay in the range of 114 to 115 °C.

On to `CCOC(=O)C1=C(COCc2nnn(CCNc3nc(N)n[nH]3)n2)NC(C)=C(C(=O)OC)C1c1cccc(Cl)c1Cl` (configuration not stated), for which the melting point turned out to be 85 °C.

Turning to `COc1cc(C)c(Cl)c2c(=O)oc3c(c12)C(=O)c1cccc(O)c1C3=O`, the melting point fell in the range of 294 to 296 °C.

Take `COC(=O)C1C(c2ccc(I)cc2)CC2CCC1N2C` (configuration not stated): the melting point lay in the range of 101 to 102 °C.

On to `O=c1[nH]c(N[N+](=O)[O-])ncc1Cc1ccn(Cc2ccccc2)c(=O)c1`, for which the melting point was in the range of 200 to 201 °C.

Compound `CN(C)Cc1ccc2nc(NC(=O)c3ccc(C(C)(C)C)cc3)cn2c1` came in with a melting point of 236 to 237 °C.

In turn, `N#Cc1nn(-c2c(Cl)cc(C(F)(F)F)cc2Cl)c(N)c1SC(F)(F)F` gave a melting point of 163 °C.

Compound `CCN(CC)c1cc(-c2ccco2)ncn1` had a melting point of 179 to 180 °C.

For the compound `C[Si](C)(C)N(SN=C(Cl)C#N)[Si](C)(C)C`, the melting point is 29 to 30 °C.

`Cc1cc(-c2nnc3c4ccccc4c(OCc4ncnn4C)nn23)no1` registered a melting point of 256 to 258 °C.

In the case of `CC(O)c1nc2c(C(F)(F)F)cccc2c(O)c1C(=O)Nc1nccs1` (configuration not stated), the melting point was found to be 205 °C.

`COc1ccc(N(c2nc(N)nc(NC3CC3)n2)C2CC2)cc1F` had a melting point of 91 to 92 °C.

Consider `COC(=O)Nc1nc2ccccc2n1C(=O)NC1CC(C)(C)CC(C)(N(C)C(=O)n2c(NC(=O)OC)nc3ccccc32)C1` (configuration not stated), for which the melting point is 82 to 83 °C.

For `CC(C)(C)OC(=O)c1cccc(-c2ccc([N+](=O)[O-])cc2)c1`, the melting point lay within 110 to 111 °C.

`O=C1c2ccccc2CN1CSc1ccncc1` had a melting point of 131 to 132 °C.

`N#Cc1cn(Cc2c(F)cccc2F)nn1` showed a melting point of 116 °C.

`COc1cc(N)c(Cl)cc1C(=O)NC1CCN(CCNC(=O)C(CO)c2ccccc2)CC1OC` (configuration not stated): the melting point was 114 °C.

`COc1cccc(CC2CCCc3cc(OCc4ccccc4)c(OC)cc3N2)c1` (configuration not stated) gave a melting point of 92 to 93 °C.

Turning to `O=C1Cc2cc(F)c(F)cc2N1`, the melting point was 187 to 190 °C.

Take `CCCCCCCCSc1nc(Nc2cc(C)c(O)c(C(C)(C)C)c2)nc(NC2CC(C)(C)NC(C)(C)C2)n1`: the melting point was determined as 133 °C.

Turning to `Cc1c(CC(=O)O)cccc1C(=O)c1ccc(Cl)cc1`, the melting point came to 152 °C.

As for `NC(=O)N1CC(c2ccccc2)C(c2ccc(Cl)cc2)=N1` (configuration not stated), the melting point was in the range of 173 to 175 °C.

With `O=C1CC(c2ccc(Cl)cc2Cl)c2cc(Br)ccc2O1` (configuration not stated), the melting point lay in the range of 117 to 118 °C.
